Measured values taken from patent US8946445B2, “Heterocyclic molecules as apoptosis inducers” (Nanjing Allgen Pharma Co. Ltd., priority 2011, dated 2015).

What was measured:
[1] = test system: H460 non-small cell lung cancer cell line; test: cell viability (proliferation) assay, Trypan blue exclusion counting, H460; format: cell-based; details: H460 cells, compound @ 1 μM, 72 hours, vs 1% DMSO control
Protocol: (§1) Anti-oncogenic effects of the compounds of the present invention were evaluated by cell viability (proliferation) assays in H460 non-small cell lung cancer cell line and A549 human lung carcinoma cell line. H460 and A549 were purchased from ATCC (American Type Culture Collection), and they were maintained in RPMI 1640 and DMEM, respectively, with 10% fetal bovine serum. Cell lines were cultured in an incubator with 5% CO2 at 37° C.
(§2) Cells were seeded in 6-well-plates (10^5 cells/ml medium per well) and allowed them to grow for 24 hrs in the incubator. Cells were then treated with 1 μM of tested compounds. Cells treated with 1% DMSO were used as control. 72 hours after treatment, cells were removed by trypsinization and viable cell number was obtained by counting Trypan blue-excluding cells under microscope with a hemocytometer. Experiments were performed in triplicate. Statistical were carried out by analysis of variance (ANOVA) and LSD test for multiple comparisons, with p<0.05 considered significant.

[2] = test system: A549 human lung carcinoma cell line; test: cell viability (proliferation) assay, Trypan blue exclusion counting, A549; format: cell-based; details: A549 cells, compound @ 1 μM, 72 hours, vs 1% DMSO control
Protocol: as §1, §2

Row | SMILES | Cell Death (%) after 3-day treatment [1] | Cell Death (%) after 3-day treatment [2]
1 | COC1=CC(c2cc3sc(Cl)cc3[nH]2)=N/C1=C\c1[nH]c(C)cc1C [Example 2, (Z)-2-chloro-5-(2-((3,5-dimethyl-1H-pyrrol-2-yl)methylene)-3-methoxy-2H-pyrrol-5-yl)-4H-thieno[3,2-b]pyrrole] | 88.6% | 86.7%
2 | COC1=CC(c2cc3ccccc3[nH]2)=N/C1=C\c1[nH]c(C)cc1C [Obatoclax] | 88.3% | 76.6%
